The structures appear in SMILES notation.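 These data come from cells grown in 96-well plates and exposed to compound for 48 hours at five concentrations. TGI denotes the concentration required for complete inhibition of growth.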

In PubChem BioAssay (NCI) one finds TGI data, which are given here for four compounds.

Holding throughout (assay): DTP human tumour cell line panel, 48 h
Assay [1] relates to MALME-3M melanoma.
The subject of assay [2] is OVCAR-5 ovarian.
The test system of assay [3] is SF-268 CNS.
Assay [4] concerns HCC-2998 colon.
Assay [5] has as its system NCI-H226 lung.
In assay [6] the test system is SF-295 CNS.
The test system of assay [7] is OVCAR-4 ovarian.
Assay [8] relates to UO-31 renal.
Assay [9] has as its system PC-3 prostate.
The subject of assay [10] is OVCAR-8 ovarian.
The subject of assay [11] is SK-MEL-5 melanoma.
Assay [12] relates to RXF 393 renal.
For assay [13], the system named is SK-OV-3 ovarian.
Assay [14] has as its system CCRF-CEM leukemia.
The subject of assay [15] is M14 melanoma.
In assay [16] the test system is MCF7 breast.
Assay [17] relates to SNB-75 CNS.
Assay [18] relates to K-562 leukemia.
Assay [19] has as its system MOLT-4 leukemia.
Assay [20] has as its system DU-145 prostate.

For `CC(=O)N(CC(=O)C(=O)NNc1ccoc1)c1ccc(Cl)cc1`, the total growth inhibition concentration (TGI) in assay [1], in assay [2], in [3], in assay [4], in assay [5] and in assay [6] was above 100 µM throughout. Besides, the TGI in [7], in [8], in [9], in [10], in assay [11] and in assay [12] was above 100 µM in each case. Also, the TGI in [13], in assay [14], in assay [15], in assay [16], in [17] and in [18] was above 100 µM throughout. The TGI in assay [19] and in assay [20] was above 100 µM in each case.

As for `O=c1[nH]c(=O)n(C2C(CO)OC(CO)C2O)cc1F` (stereo not given), the TGI in [1], in assay [2], in assay [3], in [4], in assay [5] and in [6] was above 100 µM each time. Further, the TGI in assay [7], in [8], in [9], in assay [10], in assay [11] and in assay [12] was above 100 µM each time. Also, the TGI in assay [13], in [14], in assay [15], in assay [16], in assay [17] and in assay [18] was above 100 µM each time. For the same compound, the TGI in [19] and in assay [20] was above 100 µM each time.

Consider `Cc1ccc(S(=O)(=O)N2CC(CCN)c3ccccc32)cc1` (stereo not given), for which the TGI in assay [1] is 17.6 µM; in [2] it was 24 µM; in assay [3] it was 23.8 µM; in assay [4], 30.3 µM; in [5], 11.6 µM; in assay [6] it was 33.5 µM. In addition, the TGI in assay [7] was above 100 µM; in assay [8], 27.4 µM; in assay [9] it was 29 µM; in assay [10], 27 µM; in assay [11] it was 17.7 µM; in assay [12], 12.6 µM. In addition, the TGI in assay [13] is above 44.7 µM; in assay [14], above 100 µM; in [15] it was 8.4 µM; in assay [16], 29.8 µM; in assay [17], 26.5 µM; in assay [18], above 60.8 µM. Besides, the figures for the TGI in assay [19] and in assay [20] were above 83.9 µM and 31.3 µM, respectively.

As for `O=S(=O)(O)c1ccc2cc(N=Nc3c(O)ccc4ccccc34)ccc2c1`, the TGI in [1], in [2], in [3], in assay [4], in assay [5] and in [6] was above 100 µM throughout. Besides, the TGI in [7], in [8], in [9], in [10], in assay [11] and in assay [12] was above 100 µM throughout. For the same compound, the TGI in [13], in [14], in [15], in assay [16], in assay [17] and in assay [18] was above 100 µM each time. Besides, the TGI in assay [19] and in assay [20] was above 100 µM throughout.

The term TGI denotes the concentration at which net growth stops.
